These results are taken from US5116855A, “Rhodanine derivatives and pharmaceutical compositions” (Nisshin Flour Milling Co., Ltd., priority 1989, dated 1992).

The target of the assay is T1, aldose reductase (Rattus norvegicus, UniProt P07943).
T1 construct: the lenses were excised and homogenized in cold distilled water; from tissue; host or cells: lens of male SD rats, homogenate supernatant (crude enzyme)
The experiment in a line: Inhibitory activity against aldose reductase (crude enzyme from rat lenses, NADPH oxidation at 340 nm, D,L-glyceraldehyde substrate). The settings on record: aldose reductase from SD rat lenses, pH 6.2, 30° C.; for inhibition at 10 µM: pH 6.2, 10^-5 M; for inhibition at 10 µM / inhibition at 1 µM: read-out: Percentage of inhibition (%); for inhibition at 1 µM: pH 6.2, 10^-6 M. The class given is biochemical. The method, then:
The compounds of the present invention were evaluated for the inhibitory activity against aldose reductase according to the following assay procedure.
Enzyme activity was assayed according to the modification [Biochemical Pharmacology, 25, 2505 (1976)] of the method described in J. Biol. Chem., 240, 877-882 (1965).
SD strain male rats were sacrificed by decapitation, the lenses were excised and homogenized in cold distilled water. The homogenate was then centrifuged and the supernatant was used as the crude aldose reductase solution.
Separately, a 0.1 M sodium phosphate buffer (pH 6.2) containing 0.4 M ammonium sulfate was prepared at 30° C. In this buffer were dissolved the present compound, the crude aldose reductase solution and nicotinamide-adenine dinucleotide phosphate, reduced form (NADPH). The mixture was preincubated at 30° C. for 3 minutes and the reaction was initiated by addition of D,L-glyceraldehyde. In this case, the concentration of the present compound dissolved was 10^-5 M and 10^-6 M, respectively. The total amount of the assay mixture was 1.0 ml, containing 0.16 mM of NADPH, 10 mM of D,L-glyceraldehyde and 0.010-0.016 units of aldose reductase.
The inhibitory activity of the present compounds against aldose reductase was measured using each 1.0 ml of the reaction mixture containing the present compound in the above concentration. In this measurement, the rate of NADPH oxidation was followed by recording the decrease in absorbance at 340 nm. The inhibitory activity of the present compounds against aldose reductase as measured was expressed in percentage of inhibition (%) as a relative activity based on a control value.

On to “5-[α-Methyl-4-(1H-tetrazol-5-yl)cinnamylidene)-4-oxo-2-thioxothiazolidine [Example 17]”, for which the “Percentage of inhibition (%)” value was found to be 77.6% (10^-5 M) and 35.9% (10^-6 M). A word on the inhibition: it is the drop in the measured response relative to a control, in per cent. As to `CCCC(C=Cc1ccc(C(=O)O)cc1)=C1SC(=S)NC1=O` (single isomer, unassigned) [3 Isomer A], the inhibition at 10 µM was 77.1% and the inhibition at 1 µM was 29.7%.

As to `CCCC(C=Cc1ccc(C(=O)O)cc1)=C1SC(=S)NC1=O` (single isomer, unassigned) [3 Isomer B], the “Percentage of inhibition (%)” value is, setting by setting: (10^-5 M) 80.5%; (10^-6 M) 34.5%.

Take `CCOC(=O)CCC(C=Cc1ccc(C(F)(F)F)cc1)=C1SC(=S)NC1=O` (single isomer, unassigned) [6 Isomer A]: the inhibition at 10 µM was 35%. `CCOC(=O)CCC(C=Cc1cccc(O)c1)=C1SC(=S)NC1=O` (single isomer, unassigned) [8 Isomer A]: the inhibition at 10 µM came to 57.9%.

For `CCOC(=O)CCC(C=Cc1cccc(O)c1)=C1SC(=S)NC1=O` (single isomer, unassigned) [8 Isomer B], where the note is “10^-5 M”, the “Percentage of inhibition (%)” value was 43.1%. Regarding `CCOC(=O)CCC(C=Cc1cccs1)=C1SC(=S)NC1=O` (single isomer, unassigned) [13 Isomer A], the inhibition at 10 µM was found to be 56%. Regarding `CCOC(=O)CCC(C=Cc1cccs1)=C1SC(=S)NC1=O` (single isomer, unassigned) [13 Isomer B], the “Percentage of inhibition (%)” value (10^-5 M) came to 54.3%. As for `CC(C=Cc1ccc(OCC(=O)O)cc1)=C1SC(=S)NC1=O` (single isomer, unassigned) [21 Isomer A], the inhibition at 10 µM is 94.9% and the inhibition at 1 µM was determined as 78.3%.

Regarding `CC(C=Cc1ccc(OCC(=O)O)cc1)=C1SC(=S)NC1=O` (single isomer, unassigned) [21 Isomer B], the “Percentage of inhibition (%)” value (10^-5 M) was 89.8%.

On to `CCCCCCC(C=Cc1ccc(C(=O)O)cc1)=C1SC(=S)NC1=O` (single isomer, unassigned) [26 Isomer A], for which the inhibition at 1 µM stood at 68.9%. In addition, the “Percentage of inhibition (%)” value (10^-5 M) was 92.0%. Consider `CCCCCCC(C=Cc1ccc(C(=O)O)cc1)=C1SC(=S)NC1=O` (single isomer, unassigned) [26 Isomer B], for which the “Percentage of inhibition (%)” value (10^-5 M) came out at 52.1%. `CCCC(CCc1ccccc1OCC(=O)O)=C1SC(=S)NC1=O` (single isomer, unassigned) [27 Isomer A]: the inhibition at 10 µM is 90.6% and the inhibition at 1 µM was 53.1%. `CCCC(CCc1ccccc1OCC(=O)O)=C1SC(=S)NC1=O` (single isomer, unassigned) [27 Isomer B]: the “Percentage of inhibition (%)” value came out at 83.8% (10^-5 M) and 45.9% (10^-6 M). For `CCCCCCC(CCc1ccc(CCC(=O)O)cc1)=C1SC(=S)NC1=O` (single isomer, unassigned) [33 Isomer A], the inhibition at 10 µM was found to be 42.9%.

Regarding `CCCCCCC(CCc1ccc(CCC(=O)O)cc1)=C1SC(=S)NC1=O` (single isomer, unassigned) [33 Isomer B], the “Percentage of inhibition (%)” value (10^-5 M) came to 30.5%.

For `COc1ccc(C=CC(CCCC(=O)O)=C2SC(=S)NC2=O)cc1OC` (single isomer, unassigned) [38 Isomer A], the inhibition at 10 µM stood at 95.7% and the inhibition at 1 µM came to 86.8%. Regarding `COc1ccc(C=CC(CCCC(=O)O)=C2SC(=S)NC2=O)cc1OC` (single isomer, unassigned) [38 Isomer B], the “Percentage of inhibition (%)” value was determined as 94.5% (10^-5 M) and 77.9% (10^-6 M).

Regarding `CCCCOC(=O)COc1ccc(Cl)cc1C=CC(C)=C1SC(=S)NC1=O` (single isomer, unassigned) [51 Isomer A], the inhibition at 10 µM is 51.4%. For the molecule `CCCCOC(=O)COc1ccc(Cl)cc1C=CC(C)=C1SC(=S)NC1=O` (single isomer, unassigned) [51 Isomer B], the “Percentage of inhibition (%)” value (10^-5 M) is listed as 58.7%.

On to `CCOC(=O)COc1ccc(C=CC(C)=C2SC(=S)N(C)C2=O)cc1OC` (single isomer, unassigned) [55 Isomer A], for which the inhibition at 10 µM is 38.1% and the inhibition at 1 µM came to 23.8%.

`CCOC(=O)COc1ccc(C=CC(C)=C2SC(=S)N(C)C2=O)cc1OC` (single isomer, unassigned) [55 Isomer B]: the “Percentage of inhibition (%)” value (10^-5 M) amounted to 47.5% and the “Percentage of inhibition (%)” value (10^-6 M) was found to be 24.3%. Take `COC(=O)COc1ccc(C=CC(C)=C2SC(=S)NC2=O)cc1OCC(=O)OC` (single isomer, unassigned) [60 Isomer A]: the inhibition at 10 µM worked out at 61.5% and the inhibition at 1 µM amounted to 27.7%.

As to `COC(=O)COc1ccc(C=CC(C)=C2SC(=S)NC2=O)cc1OCC(=O)OC` (single isomer, unassigned) [60 Isomer B], the “Percentage of inhibition (%)” value worked out at 70.3% (10^-5 M) and 30.4% (10^-6 M). On to `CCCC(=Cc1ccccc1OCC(=O)OC)C=C1SC(=S)NC1=O` (single isomer, unassigned) [61 Isomer A], for which the inhibition at 10 µM was found to be 61.8% and the inhibition at 1 µM came out at 28.7%. On to `CCCC(=Cc1ccccc1OCC(=O)OC)C=C1SC(=S)NC1=O` (single isomer, unassigned) [61 Isomer B], for which the “Percentage of inhibition (%)” value by setting is: (10^-5 M) 77.2%; (10^-6 M) 39.0%. With `COC(=O)COc1ccc(C(C)C)cc1C=CC(C)=C1SC(=S)NC1=O` (single isomer, unassigned) [62 Isomer A], the inhibition at 10 µM stood at 48.3%. On to `COC(=O)COc1ccc(C(C)C)cc1C=CC(C)=C1SC(=S)NC1=O` (single isomer, unassigned) [62 Isomer B], for which the “Percentage of inhibition (%)” value (10^-5 M) came out at 66.7%. `CC(C=Cc1ccc(OCC(=O)O)c(OCC(=O)O)c1)=C1SC(=S)NC1=O` (single isomer, unassigned) [83 Isomer A]: the inhibition at 10 µM was determined as 82.4% and the inhibition at 1 µM amounted to 43.4%. Regarding `CC(C=Cc1ccc(OCC(=O)O)c(OCC(=O)O)c1)=C1SC(=S)NC1=O` (single isomer, unassigned) [83 Isomer B], the “Percentage of inhibition (%)” value (10^-5 M) came out at 75.8% and the “Percentage of inhibition (%)” value (10^-6 M) was determined as 36.8%.

Take `O=C(O)CCC(C=Cc1ccccc1F)=C1SC(=S)NC1=O` (single isomer, unassigned) [Example 22, 6-(2-Fluorophenyl)-4-(4-oxo-2-thioxo-5-thiazolidinylidene)-5-hexenoic acid]: the inhibition at 10 µM stood at 88.1% and the inhibition at 1 µM was 41.9%. As for `O=C(O)CCC(C=Cc1ccc(C(F)(F)F)cc1)=C1SC(=S)NC1=O` (single isomer, unassigned) [Example 23, 6-(4-Trifluoromethylphenyl)-4-(4-oxo-2-thioxo-5-thiazolidinylidene)-5-hexenoic acid], the inhibition at 10 µM turned out to be 64.6%. For the molecule `O=C(O)CCC(C=Cc1cccc(O)c1)=C1SC(=S)NC1=O` (single isomer, unassigned) [Example 25, 6-(3-Hydroxyphenyl)-4-(4-oxo-2-thioxo-5-thiazolidinylidene)-5-hexenoic acid], the inhibition at 10 µM came to 82% and the inhibition at 1 µM is 32.9%. With `CCCCCCC(C=Cc1ccc(C=CC(=O)O)cc1)=C1SC(=S)NC1=O` (single isomer, unassigned) [Example 28, 4-[3-(4-Oxo-2-thioxo-5-thiazolidinylidene)-1-nonenyl]cinnamic acid], the inhibition at 10 µM turned out to be 33%.
